Read-outs that look alike come from different tables or passages of the source.
Legend:
Type in all cases: binding
[1] = target: T1, HeLa cell extract proteins (Homo sapiens, UniProt Q15392)
T1 construct: endogenous in cells; host or cells: HeLa cell extract
T1 sequence (Q15392 23-516): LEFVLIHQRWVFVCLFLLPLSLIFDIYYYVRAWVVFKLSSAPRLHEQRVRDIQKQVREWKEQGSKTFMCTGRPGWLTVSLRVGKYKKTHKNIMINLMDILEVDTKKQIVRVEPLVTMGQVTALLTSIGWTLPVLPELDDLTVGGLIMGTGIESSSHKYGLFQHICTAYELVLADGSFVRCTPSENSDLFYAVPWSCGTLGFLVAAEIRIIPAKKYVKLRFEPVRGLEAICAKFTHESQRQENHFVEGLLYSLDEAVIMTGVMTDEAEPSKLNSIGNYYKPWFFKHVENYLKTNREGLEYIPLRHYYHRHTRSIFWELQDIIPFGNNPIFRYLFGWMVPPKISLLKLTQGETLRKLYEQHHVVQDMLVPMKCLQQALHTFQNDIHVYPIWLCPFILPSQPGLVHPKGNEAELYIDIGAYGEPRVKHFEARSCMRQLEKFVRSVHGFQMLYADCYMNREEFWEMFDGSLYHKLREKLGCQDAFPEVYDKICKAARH

[2] = target: T2, HeLa cell extract proteins (Homo sapiens, UniProt Q7Z3U7)
T2 construct: endogenous in cells; host or cells: HeLa cell extract

[3] = target: T3, HeLa cell extract proteins (Homo sapiens, UniProt Q99873)
T3 construct: endogenous in cells; host or cells: HeLa cell extract

[4] = target: T4, HeLa cell extract proteins (Homo sapiens, UniProt Q9HA64)
T4 construct: endogenous in cells; host or cells: HeLa cell extract
T4 sequence (Q9HA64 1-309): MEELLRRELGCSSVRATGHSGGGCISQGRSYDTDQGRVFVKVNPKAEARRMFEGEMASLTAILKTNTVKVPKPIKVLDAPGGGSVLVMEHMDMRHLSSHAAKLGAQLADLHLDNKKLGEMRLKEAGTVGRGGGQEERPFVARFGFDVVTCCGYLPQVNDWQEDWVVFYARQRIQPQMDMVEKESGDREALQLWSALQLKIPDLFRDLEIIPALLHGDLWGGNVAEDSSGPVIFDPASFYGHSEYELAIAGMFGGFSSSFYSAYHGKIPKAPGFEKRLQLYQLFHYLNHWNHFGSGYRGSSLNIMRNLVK

[5] = target: T5, HeLa cell extract proteins (Homo sapiens, UniProt Q5JVF3)
T5 construct: endogenous in cells; host or cells: HeLa cell extract

[6] = target: T6, HeLa cell extract proteins (Homo sapiens, UniProt P41252)
T6 construct: endogenous in cells; host or cells: HeLa cell extract
T6 sequence (P41252 1-1262): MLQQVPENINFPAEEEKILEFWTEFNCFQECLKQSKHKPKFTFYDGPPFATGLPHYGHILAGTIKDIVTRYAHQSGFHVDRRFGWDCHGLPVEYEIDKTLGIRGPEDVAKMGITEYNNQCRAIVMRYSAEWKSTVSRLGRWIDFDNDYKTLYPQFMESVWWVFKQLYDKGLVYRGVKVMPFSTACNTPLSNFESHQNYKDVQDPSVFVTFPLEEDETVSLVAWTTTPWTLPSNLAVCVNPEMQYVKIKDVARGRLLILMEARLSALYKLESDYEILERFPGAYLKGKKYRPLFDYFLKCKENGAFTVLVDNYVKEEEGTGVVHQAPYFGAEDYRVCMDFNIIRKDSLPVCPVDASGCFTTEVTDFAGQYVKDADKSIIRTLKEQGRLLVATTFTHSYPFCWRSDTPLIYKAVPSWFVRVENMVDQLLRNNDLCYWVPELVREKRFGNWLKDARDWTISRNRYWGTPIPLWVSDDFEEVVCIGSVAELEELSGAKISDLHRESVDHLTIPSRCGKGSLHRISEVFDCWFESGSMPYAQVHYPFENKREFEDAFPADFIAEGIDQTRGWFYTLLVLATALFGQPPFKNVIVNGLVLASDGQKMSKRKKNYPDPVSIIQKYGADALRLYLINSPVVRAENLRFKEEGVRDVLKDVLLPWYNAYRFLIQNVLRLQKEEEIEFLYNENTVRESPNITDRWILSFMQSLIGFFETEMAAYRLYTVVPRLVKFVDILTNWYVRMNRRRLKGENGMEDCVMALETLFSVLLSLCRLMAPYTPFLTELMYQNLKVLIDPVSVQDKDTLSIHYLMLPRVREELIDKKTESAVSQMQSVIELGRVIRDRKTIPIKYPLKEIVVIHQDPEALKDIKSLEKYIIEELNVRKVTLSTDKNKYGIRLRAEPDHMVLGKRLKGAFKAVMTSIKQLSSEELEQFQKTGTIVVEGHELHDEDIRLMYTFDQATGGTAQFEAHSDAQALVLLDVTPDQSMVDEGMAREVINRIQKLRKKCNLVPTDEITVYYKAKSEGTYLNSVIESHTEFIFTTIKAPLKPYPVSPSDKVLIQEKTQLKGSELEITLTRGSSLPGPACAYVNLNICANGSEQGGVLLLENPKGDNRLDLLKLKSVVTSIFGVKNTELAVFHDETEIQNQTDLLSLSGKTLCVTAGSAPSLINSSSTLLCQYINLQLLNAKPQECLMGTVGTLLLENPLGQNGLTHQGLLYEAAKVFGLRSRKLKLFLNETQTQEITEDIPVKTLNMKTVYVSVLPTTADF

[7] = target: T7, HeLa cell extract proteins (Homo sapiens, UniProt Q9Y6K9)
T7 construct: endogenous in cells; host or cells: HeLa cell extract

[8] = target: T8, HeLa cell extract proteins (Homo sapiens, UniProt P51648)
T8 construct: endogenous in cells; host or cells: HeLa cell extract

[9] = target: T9, HeLa cell extract proteins (Homo sapiens, UniProt P06703)
T9 construct: endogenous in cells; host or cells: HeLa cell extract

[10] = target: T10, HeLa cell extract proteins (Homo sapiens, UniProt P28074)
T10 construct: endogenous in cells; host or cells: HeLa cell extract
T10 sequence (P28074 60-263): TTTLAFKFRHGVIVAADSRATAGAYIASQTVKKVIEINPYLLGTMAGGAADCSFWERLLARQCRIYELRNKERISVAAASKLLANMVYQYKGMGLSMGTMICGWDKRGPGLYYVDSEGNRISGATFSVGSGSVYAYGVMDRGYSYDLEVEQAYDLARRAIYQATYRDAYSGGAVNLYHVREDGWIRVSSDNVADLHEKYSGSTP

[11] = HeLa, protein DHCR24 (24-DEHYDROC[…] PRECURSOR)
[12] = HeLa, protein FN3KRP (KETOSAMINE-3-KINASE)
[13] = HeLa, protein IKBKG (INHIBITOR OF KAPPAB KINASE GAMMA)

T2 sequence (Q7Z3U7 whole entry): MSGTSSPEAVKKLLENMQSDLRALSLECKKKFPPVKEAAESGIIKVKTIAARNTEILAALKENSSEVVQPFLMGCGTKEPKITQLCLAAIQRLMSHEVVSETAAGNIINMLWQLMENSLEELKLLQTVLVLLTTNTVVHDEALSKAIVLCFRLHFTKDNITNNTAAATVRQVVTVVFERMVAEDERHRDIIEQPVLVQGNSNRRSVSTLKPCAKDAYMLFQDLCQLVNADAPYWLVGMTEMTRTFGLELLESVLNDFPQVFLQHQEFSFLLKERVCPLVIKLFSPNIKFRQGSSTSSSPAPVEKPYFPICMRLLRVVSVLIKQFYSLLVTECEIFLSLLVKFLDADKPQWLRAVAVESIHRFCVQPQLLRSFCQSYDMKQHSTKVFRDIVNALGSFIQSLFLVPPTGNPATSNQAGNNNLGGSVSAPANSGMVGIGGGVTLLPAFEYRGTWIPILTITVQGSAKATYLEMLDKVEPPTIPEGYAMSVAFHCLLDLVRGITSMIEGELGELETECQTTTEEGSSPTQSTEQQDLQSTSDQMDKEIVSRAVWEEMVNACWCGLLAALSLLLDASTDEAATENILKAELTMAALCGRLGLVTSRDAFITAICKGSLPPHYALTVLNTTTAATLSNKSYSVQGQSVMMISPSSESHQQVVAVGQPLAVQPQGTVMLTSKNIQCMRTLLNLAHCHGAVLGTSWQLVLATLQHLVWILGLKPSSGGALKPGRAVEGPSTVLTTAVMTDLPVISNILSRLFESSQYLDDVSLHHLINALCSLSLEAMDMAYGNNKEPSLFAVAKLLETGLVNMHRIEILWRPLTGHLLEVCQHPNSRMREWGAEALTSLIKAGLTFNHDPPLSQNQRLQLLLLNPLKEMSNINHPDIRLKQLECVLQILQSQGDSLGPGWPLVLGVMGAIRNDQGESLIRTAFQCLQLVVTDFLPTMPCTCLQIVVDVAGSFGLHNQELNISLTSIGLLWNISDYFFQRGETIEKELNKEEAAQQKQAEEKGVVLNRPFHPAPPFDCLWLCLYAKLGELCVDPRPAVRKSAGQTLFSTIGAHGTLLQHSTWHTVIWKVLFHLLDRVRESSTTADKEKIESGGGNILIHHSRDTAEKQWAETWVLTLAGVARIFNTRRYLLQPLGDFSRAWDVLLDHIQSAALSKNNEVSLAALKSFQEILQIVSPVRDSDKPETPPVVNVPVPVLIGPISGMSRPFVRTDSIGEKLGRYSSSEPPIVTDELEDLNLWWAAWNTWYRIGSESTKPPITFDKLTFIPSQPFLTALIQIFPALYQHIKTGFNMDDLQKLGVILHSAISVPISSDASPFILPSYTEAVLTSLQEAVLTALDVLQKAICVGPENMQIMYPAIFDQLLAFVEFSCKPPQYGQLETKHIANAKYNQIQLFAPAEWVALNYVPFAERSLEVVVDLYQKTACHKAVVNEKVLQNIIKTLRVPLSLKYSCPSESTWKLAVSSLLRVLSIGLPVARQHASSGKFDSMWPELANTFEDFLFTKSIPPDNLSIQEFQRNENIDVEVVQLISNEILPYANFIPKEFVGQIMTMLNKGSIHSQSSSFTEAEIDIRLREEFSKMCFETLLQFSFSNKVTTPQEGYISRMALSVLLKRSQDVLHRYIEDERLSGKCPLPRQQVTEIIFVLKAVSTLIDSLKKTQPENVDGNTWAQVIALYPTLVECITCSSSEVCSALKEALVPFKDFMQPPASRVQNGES
T7 sequence (Q9Y6K9 whole entry): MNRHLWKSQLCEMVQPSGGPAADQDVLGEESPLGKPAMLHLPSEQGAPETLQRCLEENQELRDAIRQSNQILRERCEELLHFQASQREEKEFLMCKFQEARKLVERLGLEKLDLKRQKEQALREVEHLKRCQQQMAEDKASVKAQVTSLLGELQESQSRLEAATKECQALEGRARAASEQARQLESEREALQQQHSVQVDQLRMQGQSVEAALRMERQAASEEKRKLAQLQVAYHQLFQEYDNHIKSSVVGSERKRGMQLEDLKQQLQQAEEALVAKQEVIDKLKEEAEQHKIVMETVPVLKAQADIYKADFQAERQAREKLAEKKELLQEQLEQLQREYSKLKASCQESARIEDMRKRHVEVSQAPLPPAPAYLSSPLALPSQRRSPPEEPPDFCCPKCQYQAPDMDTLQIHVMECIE
T8 sequence (P51648 whole entry): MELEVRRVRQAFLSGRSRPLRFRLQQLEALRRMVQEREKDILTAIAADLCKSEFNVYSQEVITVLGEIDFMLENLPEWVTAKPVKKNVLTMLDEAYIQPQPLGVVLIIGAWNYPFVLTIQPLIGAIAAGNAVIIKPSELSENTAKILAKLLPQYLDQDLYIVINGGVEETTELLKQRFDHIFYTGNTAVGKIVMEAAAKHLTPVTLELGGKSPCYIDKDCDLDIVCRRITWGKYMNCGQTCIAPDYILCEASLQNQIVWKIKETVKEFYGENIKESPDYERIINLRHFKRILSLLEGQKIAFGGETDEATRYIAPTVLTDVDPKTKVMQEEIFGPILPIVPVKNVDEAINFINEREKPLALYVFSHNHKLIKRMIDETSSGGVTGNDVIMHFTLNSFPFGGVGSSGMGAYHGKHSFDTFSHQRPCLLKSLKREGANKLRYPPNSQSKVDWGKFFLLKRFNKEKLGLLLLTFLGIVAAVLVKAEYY
T5 sequence (Q5JVF3 whole entry): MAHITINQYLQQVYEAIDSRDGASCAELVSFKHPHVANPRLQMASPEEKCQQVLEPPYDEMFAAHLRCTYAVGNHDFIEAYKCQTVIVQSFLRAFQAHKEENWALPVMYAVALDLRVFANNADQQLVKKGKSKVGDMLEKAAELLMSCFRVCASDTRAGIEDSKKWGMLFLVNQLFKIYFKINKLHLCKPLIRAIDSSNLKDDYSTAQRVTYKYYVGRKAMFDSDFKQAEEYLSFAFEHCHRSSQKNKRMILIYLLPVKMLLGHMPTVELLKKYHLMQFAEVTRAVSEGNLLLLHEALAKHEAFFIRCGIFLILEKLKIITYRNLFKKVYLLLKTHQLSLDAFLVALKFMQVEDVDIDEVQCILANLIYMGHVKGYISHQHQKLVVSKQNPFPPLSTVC
T3 sequence (Q99873 whole entry): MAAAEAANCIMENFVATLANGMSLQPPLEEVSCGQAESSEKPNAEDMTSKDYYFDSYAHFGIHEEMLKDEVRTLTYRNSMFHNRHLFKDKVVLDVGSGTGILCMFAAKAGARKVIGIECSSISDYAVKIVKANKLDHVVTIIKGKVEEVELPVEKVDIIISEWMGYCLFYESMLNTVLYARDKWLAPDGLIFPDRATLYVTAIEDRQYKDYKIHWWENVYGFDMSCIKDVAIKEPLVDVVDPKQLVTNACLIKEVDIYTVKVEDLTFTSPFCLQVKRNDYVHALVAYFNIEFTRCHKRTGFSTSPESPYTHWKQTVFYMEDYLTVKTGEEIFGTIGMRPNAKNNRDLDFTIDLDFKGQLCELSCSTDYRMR

Nc1nc2c(c(=O)[nH]1)N(C=O)C(CNc1ccc(C(=O)N[C@@H](CCC(=O)O)C(=O)O)cc1)CN2 (stereo partly shown) [LEU, leucovorin]
fold changes relative to vehicle control [1, 11]: 1.13
fold changes relative to vehicle control ([2]; HeLa, captured protein MON2): 1.04
fold changes relative to vehicle control ([3]; HeLa, protein PRMT1): 0.94
fold changes relative to vehicle control [4, 12]: 1.08
fold changes relative to vehicle control ([5]; protein PCID2, HeLa): 0.74
fold changes relative to vehicle control ([6]; HeLa, captured protein IARS): 1.01
fold changes relative to vehicle control [7, 13]: 0.98
fold changes relative to vehicle control ([8]; HeLa, protein ALDH3A2): 0.89
fold changes relative to vehicle control ([9]; HeLa, protein S100A6): 1.3
fold changes relative to vehicle control ([10]; HeLa, protein PSMB5): 0.97

NCCCNc1ccc(C(=O)NC(CCC(=O)O)C(=O)O)cc1 (stereo not shown) [compound 7]
fold changes relative to vehicle control [1, 11]: 1.03
fold changes relative to vehicle control ([2]; HeLa, captured protein MON2): 1.25
fold changes relative to vehicle control ([3]; HeLa, protein PRMT1): 0.91
fold changes relative to vehicle control [4, 12]: 1.07
fold changes relative to vehicle control ([5]; protein PCID2, HeLa): 0.75
fold changes relative to vehicle control ([6]; HeLa, captured protein IARS): 1.1
fold changes relative to vehicle control [7, 13]: 1.15
fold changes relative to vehicle control ([8]; HeLa, protein ALDH3A2): 0.89
fold changes relative to vehicle control ([9]; HeLa, protein S100A6): 1.26
fold changes relative to vehicle control ([10]; HeLa, protein PSMB5): 1

CCCCCCOc1cccc(Cc2cnc(N)nc2N)c1 [compound 2]
fold changes relative to vehicle control ([1]; protein DHCR24, HeLa): 0.83
fold changes relative to vehicle control ([2]; HeLa, protein MON2): 1.08
fold changes relative to vehicle control ([3]; protein PRMT1, HeLa): 1.24
fold changes relative to vehicle control ([4]; protein FN3KRP, HeLa): 0.9
fold changes relative to vehicle control ([5]; HeLa, protein PCID2): 0.97
fold changes relative to vehicle control ([6]; HeLa, protein IARS): 1.22
fold changes relative to vehicle control ([7]; captured protein IKBKG, HeLa): 1.1
fold changes relative to vehicle control ([8]; HeLa, protein ALDH3A2): 1.07
fold changes relative to vehicle control ([9]; protein S100A6, HeLa): 1.89
fold changes relative to vehicle control ([10]; protein PSMB5, HeLa): 1.24

CCCCCCOc1ccc(Cc2cnc(N)nc2N)cc1 [compound 1]
fold changes relative to vehicle control ([1]; protein DHCR24, HeLa): 1.03
fold changes relative to vehicle control ([2]; HeLa, protein MON2): 1.11
fold changes relative to vehicle control ([3]; protein PRMT1, HeLa): 0.95
fold changes relative to vehicle control ([4]; protein FN3KRP, HeLa): 1
fold changes relative to vehicle control ([5]; HeLa, protein PCID2): 1.13
fold changes relative to vehicle control ([6]; HeLa, protein IARS): 1.15
fold changes relative to vehicle control ([7]; captured protein IKBKG, HeLa): 1.08
fold changes relative to vehicle control ([8]; HeLa, protein ALDH3A2): 0.94
fold changes relative to vehicle control ([9]; protein S100A6, HeLa): 1.13
fold changes relative to vehicle control ([10]; protein PSMB5, HeLa): 1.11

Nc1nc2cccc(-c3ccccc3)c2n1Cc1ccc(Cl)c(Cl)c1 [compound 3]
fold changes relative to vehicle control ([1]; protein DHCR24, HeLa): 1.02
fold changes relative to vehicle control ([2]; HeLa, protein MON2): 1.18
fold changes relative to vehicle control ([3]; protein PRMT1, HeLa): 0.93
fold changes relative to vehicle control ([4]; protein FN3KRP, HeLa): 1.04
fold changes relative to vehicle control ([5]; HeLa, protein PCID2): 1.2
fold changes relative to vehicle control ([6]; HeLa, protein IARS): 1.28
fold changes relative to vehicle control ([7]; captured protein IKBKG, HeLa): 0.9
fold changes relative to vehicle control ([8]; HeLa, protein ALDH3A2): 1.05
fold changes relative to vehicle control ([9]; protein S100A6, HeLa): 0.95
fold changes relative to vehicle control ([10]; protein PSMB5, HeLa): 0.95

NCCOCCOCC(=O)Nc1nc2ncc(CNc3ccc(C(=O)NC(CCC(=O)O)C(=O)O)cc3)nc2c(=O)[nH]1 (stereo not shown) [compound 6]
fold changes relative to vehicle control ([1]; HeLa, protein DHCR24 (24-DEHYDROCHOLESTEROL REDUCTASE PRECURSOR)): 0.88
fold changes relative to vehicle control ([2]; HeLa, captured protein MON2): 1.17
fold changes relative to vehicle control ([3]; HeLa, protein PRMT1): 0.95
fold changes relative to vehicle control [4, 12]: 0.85
fold changes relative to vehicle control ([5]; protein PCID2, HeLa): 0.91
fold changes relative to vehicle control ([6]; HeLa, captured protein IARS): 1.03
fold changes relative to vehicle control [7, 13]: 0.96
fold changes relative to vehicle control ([8]; HeLa, protein ALDH3A2): 0.92
fold changes relative to vehicle control ([9]; HeLa, protein S100A6): 1.94
fold changes relative to vehicle control ([10]; HeLa, protein PSMB5): 1.05

Nc1nc2[nH]cc(CCc3ccc(C(=O)N[C@@H](CCC(=O)O)C(=O)O)cc3)c2c(=O)[nH]1 [PTX, pemetrexed]
fold changes relative to vehicle control [1]: 1.05
fold changes relative to vehicle control [2]: 1.05
fold changes relative to vehicle control [3]: 0.93
fold changes relative to vehicle control [4]: 1.01
fold changes relative to vehicle control [5]: 0.68
fold changes relative to vehicle control [6]: 0.96
fold changes relative to vehicle control [7]: 1.02
fold changes relative to vehicle control [8]: 0.93
fold changes relative to vehicle control [9]: 1.46
fold changes relative to vehicle control [10]: 1

Source: paper PMC6199744, “Development of Chemical Proteomics for the Folateome and Analysis of the Kinetoplastid Folateome” (ACS Infectious Diseases, 2018)
